Legend:
DDR1 = DDR1 LanthaScreen Europium Kinase Binding assay; conditions: 5 nM DDR1, 1 hour at room temperature, Ki from IC50 by Cheng-Prusoff, read-out: Ki DDR1
Method: (§1) DDR1 and DDR2 binding assays were performed using Life Technologies LanthaScreen™ Europium Kinase Binding assay. The compounds were incubated with 5 nM DDR1 (Carna Biosciences) or 5 nM DDR2 (Life Technologies) for 1 hour at room temperature in white 384-well OptiPlate (PerkinElmer), containing 20 nM or 10 nM Kinase Tracer 178 respectively and 2 nM Europium labelled anti-GST antibody (Life Technologies) in assay buffer (50 mM HEPES pH 7.5, 10 mM MgCl2, 1 mM EGTA and 0.01% BRIJ35). The ratio of fluorescence emission 665 nm/615 nm after excitation at 340 nm was obtained using the Tecan Spark 20M plate reader. IC50 values were determined in GraphPad Prism 8.0 software, using 4 parameter model: log(inhibitor) vs. response. IC50 values were converted in Ki using the Cheng-Prusoff equation (Ki=IC50/(1+[Tracer]/Kd).

DDR2 [1] = test: DDR2 LanthaScreen Europium Kinase Binding assay; conditions: 5 nM DDR2, 1 hour at room temperature, Ki from IC50 by Cheng-Prusoff, read-out: Ki DDR2
Method: as §1

DDR1 receptor = test: DDR1 cell based assay (PathHunter U2OS DDR1); conditions: U2OS-DDR1 cells, bovine Type II Collagen 20 μg/ml stimulation
Method: The inhibition of DDR1 receptor activation by compounds was evaluated by PathHunter® U2OS DDR1 assay (Eurofins DiscoverX), according to the manufacturer's instructions. Briefly, U2O5-DDR1 cells were seeded in white 384-well plates at a density of 5000 cells/well and incubated for 2 hours at 37° C. and 5% CO2. Cells were then treated with compounds at different concentrations and incubated for 30 minutes, before stimulation with bovine Type II Collagen 20 μg/ml and incubation overnight at 37° C. and 5% CO2. PathHunter Detection Reagents were prepared according to the protocol provided by DiscoverX and 20 μl/well of this mix were added to each well. After incubating the plates for 1 hour at room temperature in the dark, luminescence signal was acquired with a plate reader. Raw data were normalized to vehicle control (0% for normalization) and positive control (100% for normalization; cells treated with 20 μg/ml collagen II) and IC50 parameters were calculated in GraphPad Prism 8.0 software, using sigmoidal dose-response curve fitting with variable slope.

DDR2 [2] = test: DDR2 cell based assay (phospho-ELISA in HEK293T-DDR2 cells); design: species or system human; conditions: DDR2 phosphorylation, bovine Type II Collagen 50 μg/ml, read-out: IC50DDR2
Method: The inhibition of DDR2 phosphorylation by compounds was evaluated in HEK293T-DDR2 recombinant cells by phospho-ELISA assay. Briefly, HEK293T-DDR2 cells were seeded in poly-D-lysine-coated 24-well plates at a density of 250.000 cells/well and incubated for 1.5 hours at 37° C. and 5% CO2 in DMEM+10% FBS. After that, the medium was changed to serum-free DMEM and cells were incubated for 3 hours. Then. test compounds were added at different concentrations 30 minutes before stimulation with bovine Type II Collagen at 50 μg/ml for further 3 hours. For DDR2 phospho-ELISA assay (DuoSet IC Human Phospho-DDR2; R&D Systems), protein extracts were obtained by adding 60 μl/well of lysis buffer prepared according to the manufacturer's instructions.
Protein concentration in the samples was determined by BCA assay and the levels of phospho-DDR2 were determined following R&D Systems indications. Raw data were normalized to maximal inhibition control (0% for normalization) and positive control (100% for normalization; cells treated with 20 μg/ml collagen II) and IC50 parameters were calculated in GraphPad Prism 8.0 software, using sigmoidal dose-response curve fitting with variable slope.

Row | SMILES | Ki (DDR1) | Ki (DDR2 [1]) | IC50 (DDR1 receptor) | IC50 (DDR2 [2])
1 | CC(=O)Nc1ccc(CN2CCc3ccc(C(=O)Nc4ccc(CN5CCN(C)CC5)c(C(F)(F)F)c4)cc32)cn1 [Example 13, 1-((6-acetamidopyridin-3-yl)methyl)-N-(4-((4-methylpiperazin-1-yl)methyl)-3-(trifluoromethyl)phenyl)indoline-6-carboxamide] | < 25 nM | 25 to 50 nM | < 25 nM | 50 to 80 nM
2 | CNc1ccc(CN2CCc3ccc(C(=O)Nc4ccc(CN5CCN(C)CC5)c(C(F)(F)F)c4)cc32)cn1 [Example 14, 1-((6-(methylamino)pyridin-3-yl)methyl)-N-(4-((4-methylpiperazin-1-yl)methyl)-3-(trifluoromethyl)phenyl)indoline-6-carboxamide] | < 25 nM | 25 to 50 nM | < 25 nM | 50 to 80 nM
3 | COCCn1cc(Nc2ncc(CN3CCc4ccc(C(=O)Nc5cccc(C(F)(F)F)c5)cc43)cn2)cn1 [Example 16, 1-((2-((1-(2-methoxyethyl)-1H-pyrazol-4-yl)amino)pyrimidin-5-yl)methyl)-N-(3-(trifluoromethyl)phenyl)indoline-6-carboxamide] | < 25 nM | < 25 nM | < 25 nM | < 25 nM
4 | CN1CCN(Cc2cc(NC(=O)c3ccc4c(c3)N(Cc3cnc(Nc5cnn(C)c5)nc3)CC4)cc(C(F)(F)F)c2)CC1 [Example 18, 1-((2-((1-methyl-1H-pyrazol-4-yl)amino)pyrimidin-5-yl)methyl)-N-(3-((4-methylpiperazin-1-yl)methyl)-5-(trifluoromethyl)phenyl)indoline-6-carboxamide] | < 25 nM | < 25 nM | < 25 nM | < 25 nM

— patent US20240190847A1, “INDOLINE DERIVATIVES AS DDR1 AND DDR2 INHIBITORS” (CHIESI FARMACEUTICI S.P.A., priority 2021, published 2024)
